PubChem BioAssay AID2060509 (Molecular Pharmacology Branch, DTP, NCI, 2025)

Test system: 485176-168-R4-J1-PDC spheroids with HUVEC/MSC, viability
Test: Anticancer human tumor 485176-168-R4-J1-PDC patient-derived pancreatic adenocarcinoma cell line growth inhibition [GQUAD]
Settings: for IC50: curve of first compound; for viability, T/C: stronger effect = lower value
Procedure, shortened: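 Multi-cell-type spheroids of tumor cells with HUVEC and mesenchymal stem cells, treated with drug combinations. Concentrations descend in half-log steps from near clinical Cmax, or from 10 microM where Cmax is unknown; viability read-out.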

[1] = second compound 0.0316 µM, first compound 0.000999 µM
[2] = second compound 0.0316 µM, first compound 0.00316 µM
[3] = second compound 0.0316 µM, first compound 0.00999 µM
[4] = second compound 0.0316 µM, first compound 0.0316 µM
[5] = second compound 0.0316 µM, first compound 0.0999 µM
[6] = second compound 0.0316 µM, first compound 0.316 µM
[7] = second compound 0.1 µM, first compound 0.000999 µM
[8] = second compound 0.1 µM, first compound 0.00316 µM
[9] = second compound 0.1 µM, first compound 0.00999 µM
[10] = second compound 0.1 µM, first compound 0.0316 µM
[11] = second compound 0.1 µM, first compound 0.0999 µM
[12] = second compound 0.1 µM, first compound 0.316 µM
[13] = second compound 0.316 µM, first compound 0.000999 µM
[14] = second compound 0.316 µM, first compound 0.00316 µM
[15] = second compound 0.316 µM, first compound 0.00999 µM
[16] = second compound 0.316 µM, first compound 0.0316 µM
[17] = second compound 0.316 µM, first compound 0.0999 µM
[18] = second compound 0.316 µM, first compound 0.316 µM
[19] = second compound 1 µM, first compound 0.000999 µM
[20] = second compound 1 µM, first compound 0.00316 µM
[21] = second compound 1 µM, first compound 0.00999 µM
[22] = second compound 1 µM, first compound 0.0316 µM
[23] = second compound 1 µM, first compound 0.0999 µM
[24] = second compound 1 µM, first compound 0.316 µM
[25] = second compound 3.16 µM, first compound 0.000999 µM
[26] = second compound 3.16 µM, first compound 0.00316 µM
[27] = second compound 3.16 µM, first compound 0.00999 µM
[28] = second compound 3.16 µM, first compound 0.0316 µM
[29] = second compound 3.16 µM, first compound 0.0999 µM
[30] = second compound 3.16 µM, first compound 0.316 µM
[31] = second compound 10 µM, first compound 0.000999 µM
[32] = second compound 10 µM, first compound 0.00316 µM
[33] = second compound 10 µM, first compound 0.00999 µM
[34] = second compound 10 µM, first compound 0.0316 µM
[35] = second compound 10 µM, first compound 0.0999 µM
[36] = second compound 10 µM, first compound 0.316 µM
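Further: spheroids exposed to compounds for seven days before readout.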
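Wherever viability, T/C is given: percent viability relative to DMSO vehicle control wells as 100%.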

With CCc1c2c(nc3ccc(O)cc13)-c1cc3c(c(=O)n1C2)COC(=O)[C@]3(O)CC + CN(C)c1ccc(Nc2c3ccc(NC(=O)CCN4CCCC4)cc3nc3cc(NC(=O)CCN4CCCC4)ccc23)cc1 the IC50 (second compound 0.0316 µM) was 0.00698 µM, the IC50 (second compound 0.1 µM) was 0.00932 µM and the IC50 (second compound 0.316 µM) was 0.00931 µM. It also gave an IC50 (second compound 1 µM) of 0.00726 µM, an IC50 (second compound 3.16 µM) of 0.0112 µM and an IC50 (second compound 10 µM) of 0.00771 µM. It also gave a viability, T/C [1] of 87.7%, a viability, T/C [2] of 68.4% and a viability, T/C [3] of 38.3%. It also gave a viability, T/C [4] of 28.5%, a viability, T/C [5] of 13.5% and a viability, T/C [6] of 6%. For the same molecule, the viability, T/C [7] was 77.8%, the viability, T/C [8] was 67.9% and the viability, T/C [9] was 48.1%. The viability, T/C [10] was 28.6%, the viability, T/C [11] was 11.2% and the viability, T/C [12] was 5.98%. For the same molecule, the viability, T/C [13] was 91.1%, the viability, T/C [14] was 86.8% and the viability, T/C [15] was 41.8%. It also gave a viability, T/C [16] of 27.6%, a viability, T/C [17] of 12.9% and a viability, T/C [18] of 6.92%. It also gave a viability, T/C [19] of 103%, a viability, T/C [20] of 58% and a viability, T/C [21] of 50.7%. For the same molecule, the viability, T/C [22] was 28.1%, the viability, T/C [23] was 13.8% and the viability, T/C [24] was 6.15%. The viability, T/C [25] was 88.8%, the viability, T/C [26] was 88% and the viability, T/C [27] was 43.4%. The viability, T/C [28] was 34.2%, the viability, T/C [29] was 14.3% and the viability, T/C [30] was 8.88%. For the same molecule, the viability, T/C [31] was 80.3%, the viability, T/C [32] was 61% and the viability, T/C [33] was 45.3%. It also gave a viability, T/C [34] of 34.1%, a viability, T/C [35] of 19.3% and a viability, T/C [36] of 8.05%.
Nc1ccn(C2OC(CO)C(O)C2(F)F)c(=O)n1 (stereo unspecified) + Cc1[nH]c2ccc(F)cc2c1-c1nc2c3cccnc3c3ncccc3c2[nH]1 was tested, and the IC50 (second compound 0.0316 µM) was 0.0505 µM, the IC50 (second compound 0.1 µM) was 0.04 µM and the IC50 (second compound 0.316 µM) was 0.0421 µM. It also gave an IC50 (second compound 1 µM) of 0.0541 µM, an IC50 (second compound 3.16 µM) of 0.0544 µM and an IC50 (second compound 10 µM) of 0.0574 µM. The viability, T/C [4] was 71.8%, the viability, T/C (second compound 0.0316 µM, first compound 0.1 µM) was 18.2% and the viability, T/C [6] was 10.3%. For the same molecule, the viability, T/C (second compound 0.0316 µM, first compound 1 µM) was 9.1%, the viability, T/C (second compound 0.0316 µM, first compound 3.16 µM) was 11.2% and the viability, T/C (second compound 0.0316 µM, first compound 10 µM) was 10.4%. The viability, T/C [10] was 56.6%, the viability, T/C (second compound 0.1 µM, first compound 0.1 µM) was 24.9% and the viability, T/C [12] was 9.79%. It also gave a viability, T/C (second compound 0.1 µM, first compound 1 µM) of 9.89%, a viability, T/C (second compound 0.1 µM, first compound 3.16 µM) of 11.8% and a viability, T/C (second compound 0.1 µM, first compound 10 µM) of 9.87%. It also gave a viability, T/C [16] of 58%, a viability, T/C (second compound 0.316 µM, first compound 0.1 µM) of 25.7% and a viability, T/C [18] of 12%. For the same molecule, the viability, T/C (second compound 0.316 µM, first compound 1 µM) was 10.1%, the viability, T/C (second compound 0.316 µM, first compound 3.16 µM) was 9.86% and the viability, T/C (second compound 0.316 µM, first compound 10 µM) was 11.9%. The viability, T/C [22] was 71.3%, the viability, T/C (second compound 1 µM, first compound 0.1 µM) was 25.6% and the viability, T/C [24] was 9.77%. For the same molecule, the viability, T/C (second compound 1 µM, first compound 1 µM) was 10.7%, the viability, T/C (second compound 1 µM, first compound 3.16 µM) was 12.2% and the viability, T/C (second compound 1 µM, first compound 10 µM) was 12.2%. For the same molecule, the viability, T/C [28] was 69.7%, the viability, T/C (second compound 3.16 µM, first compound 0.1 µM) was 27.8% and the viability, T/C [30] was 10.8%. It also gave a viability, T/C (second compound 3.16 µM, first compound 1 µM) of 12.1%, a viability, T/C (second compound 3.16 µM, first compound 3.16 µM) of 11.2% and a viability, T/C (second compound 3.16 µM, first compound 10 µM) of 13.9%. For the same molecule, the viability, T/C [34] was 71.8%, the viability, T/C (second compound 10 µM, first compound 0.1 µM) was 29.8% and the viability, T/C [36] was 10.8%. For the same molecule, the viability, T/C (second compound 10 µM, first compound 1 µM) was 10.4%, the viability, T/C (second compound 10 µM, first compound 3.16 µM) was 10.2% and the viability, T/C (second compound 10 µM, first compound 10 µM) was 10.8%.
Cc1[nH]c2ccccc2c1CCNCc1ccc(/C=C/C(=O)NO)cc1 + Cc1[nH]c2ccc(F)cc2c1-c1nc2c3cccnc3c3ncccc3c2[nH]1 gave an IC50 (second compound 0.0316 µM) of 0.158 µM, an IC50 (second compound 0.1 µM) of 0.163 µM and an IC50 (second compound 0.316 µM) of 0.17 µM. The IC50 (second compound 1 µM) was 0.164 µM, the IC50 (second compound 3.16 µM) was 0.129 µM and the IC50 (second compound 10 µM) was 0.15 µM. The viability, T/C [1] was 99.1%, the viability, T/C [2] was 106% and the viability, T/C [3] was 96.3%. For the same molecule, the viability, T/C [4] was 97%, the viability, T/C [5] was 77.1% and the viability, T/C [6] was 9.63%. The viability, T/C [7] was 105%, the viability, T/C [8] was 104% and the viability, T/C [9] was 89.5%. The viability, T/C [10] was 89%, the viability, T/C [11] was 78.7% and the viability, T/C [12] was 15.7%. The viability, T/C [13] was 103%, the viability, T/C [14] was 89.9% and the viability, T/C [15] was 80%. It also gave a viability, T/C [16] of 82.4%, a viability, T/C [17] of 81.3% and a viability, T/C [18] of 15.3%. The viability, T/C [19] was 82.4%, the viability, T/C [20] was 89.7% and the viability, T/C [21] was 95%. It also gave a viability, T/C [22] of 89.3%, a viability, T/C [23] of 72.8% and a viability, T/C [24] of 19.7%. For the same molecule, the viability, T/C [25] was 79.5%, the viability, T/C [26] was 93% and the viability, T/C [27] was 80%. The viability, T/C [28] was 74.3%, the viability, T/C [29] was 61% and the viability, T/C [30] was 15.5%. The viability, T/C [31] was 85.8%, the viability, T/C [32] was 93.7% and the viability, T/C [33] was 88.6%. It also gave a viability, T/C [34] of 68.4%, a viability, T/C [35] of 73.2% and a viability, T/C [36] of 18.8%.
